Assays:
[1] = system: Yellow Fever Virus (YF-IRES-Luc); test: microbe, parasite or virus in culture; assay type: cell-based
uninfected BHK cells = assay type: cell-based, hamster
fire-fly luciferase = fire-fly luciferase (Photinus pyralis, UniProt P08659, K549A/L550V/N119G/N50D/S548I); test: Direct luciferase inhibition assay; assay type: cell-based; conditions: cells transfected with luciferase-pcDNA3; data not shown
[2] = In vitro hydrolytic stability assay utilizing rat plasma

fire-fly luciferase, sequence (P08659 whole entry N50D/N119G/S548I/K549A/L550V): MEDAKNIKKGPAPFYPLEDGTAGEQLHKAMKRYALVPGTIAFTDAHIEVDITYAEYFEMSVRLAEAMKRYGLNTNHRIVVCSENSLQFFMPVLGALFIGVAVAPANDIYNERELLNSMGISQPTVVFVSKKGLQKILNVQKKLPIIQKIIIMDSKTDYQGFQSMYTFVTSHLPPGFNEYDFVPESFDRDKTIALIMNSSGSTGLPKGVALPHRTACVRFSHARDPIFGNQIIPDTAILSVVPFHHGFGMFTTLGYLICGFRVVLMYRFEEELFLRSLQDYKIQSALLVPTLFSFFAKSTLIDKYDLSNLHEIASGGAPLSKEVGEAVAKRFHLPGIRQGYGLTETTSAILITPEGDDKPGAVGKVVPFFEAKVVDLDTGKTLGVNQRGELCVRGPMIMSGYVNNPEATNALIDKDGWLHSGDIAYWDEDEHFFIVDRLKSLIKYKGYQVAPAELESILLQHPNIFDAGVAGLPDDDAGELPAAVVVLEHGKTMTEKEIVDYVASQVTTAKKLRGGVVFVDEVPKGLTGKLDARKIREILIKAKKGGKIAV

COC(=O)c1sc(-c2cccc(Br)c2)nc1C(Br)Br [Compound 6c, Methyl 2-(3-Bromophenyl)-4-(dibromomethyl)thiazole-5-carboxylate]
antiflaviviral activity (in words) [1]: weak activity

Methyl 4-Methyl-2-(naphthalen-2-yl)thiazole-5-carboxylate [Compound 5k]
EC50 [1]: 35.7 ± 22.7 µM | % Inhibition (reduction in luciferase activity) ([1]; 50 µM): 78.4% | GI50 (uninfected BHK cells): 434 ± 23.3 µM

COC(=O)c1sc(-c2ccc(C(C)(C)C)cc2)nc1C [Compound 5l]
antiflaviviral activity (in words) [1]: inactive

CCCCc1ccc(-c2nc(C)c(/C(C)=N/NC(=N)N)s2)cc1 [Compound 12, 2-(1-(2-(4-Butylphenyl)-4-methylthiazol-5-yl)ethylidene)hydrazinecarboximidamide]
reduction of luciferase activity (fire-fly luciferase): No reduction of luciferase activity was observed | half-life, times higher than the lead compound 2 [2]: around 6 times

CCCCc1ccc(-c2nc(C)c(C(=O)O)s2)cc1 [Compound 8, 2-(4-Butylphenyl)-4-methylthiazole-5-carboxylic Acid]
antiflaviviral activity (in words) [1]: inactive

COC(=O)c1sc(-c2ccccc2)nc1C(Br)Br [Compound 6a, Methyl 4-(Dibromomethyl)-2-phenylthiazole-5-carboxylate]
antiflaviviral activity (in words) [1]: very weak antiflaviviral inhibitory activity

COC(=O)c1sc(Cc2ccccc2)nc1C [Compound 5o]
antiflaviviral activity (in words) [1]: inactive

COC(=O)c1sc(-c2ccc(Cl)c(Cl)c2)nc1C(Br)Br [Compound 6j, Methyl 4-(Dibromomethyl)-2-(3,4-dichlorophenyl)thiazole-5-carboxylate]
inhibition at 50 µM ([1]; Yellow fever virus, BHK, read-out: % Inhibition (reduction in luciferase activity)): < 50%

From paper PMC3119515 (Bioorganic & medicinal chemistry, 2011)
